The data set is described as follows: gradient 5% acetonitrile 3 min, to 50% in 2 min, to 85% in 15 min, held 3 min, 100 µL/min. Particulars: column: Zorbax Extend-C18 2.1 x 50 mm; eluents: water / acetonitrile, 0.1% formic acid. A digest of the protocol: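 Retention time was recorded from adduct peaks, which were picked computationally and each inspected manually. Pure standards ran in mixtures of ~100 molecules on HPLC coupled to a quadrupole time-of-flight mass spectrometer, in positive and negative ionization mode, through a Zorbax Extend-C18 column (2.1 × 50 mm, 1.8 μm) at 100 μL/min. Eluents were water and acetonitrile, each with 0.1% formic acid.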
For `O=C(CC1CC1)N1CC(F)(F)C[C@H]1c1nnc(-c2ccccc2)o1`, the RP-LC retention time amounted to 804 s. Molecule `c1cc(-c2noc(-c3cccs3)n2)cc(-c2ccn[nH]2)c1` registered an RP-LC retention time of 903 s. As for `O=C(O)[C@@H]1OCCN(C2CC2)[C@H]1c1ccccc1`, the figure is 545 s; as for `Cc1ccc(-c2csc(Nc3c(C)n(C)n(-c4ccccc4)c3=O)n2)cc1`, 788 s. Then `CO[C@@H]1[C@H](OC(=O)NC(=O)CCl)CC[C@]2(CO2)[C@H]1[C@@]1(C)O[C@@H]1CC=C(C)C`, with 692 s. As to `COc1ccc(-c2nnc(-c3ccccc3)o2)cc1S(=O)(=O)N1CCCC1`, the RP-LC retention time amounted to 908 s.

In turn, `Cc1nn(-c2ccc(-c3noc(C4CC4)n3)cc2)cc1C(=O)Nc1cc(F)ccc1F` yielded an RP-LC retention time of 1070 s. As for `COc1ccc(CN2CC3(CCN(S(=O)(=O)c4cc(C)ccc4C)CC3)C2=O)cc1`, the figure is 932 s; as for `CCSc1nnc(NC(=O)CCc2csc(NC(=O)c3cccs3)n2)s1`, 788 s; as for `COc1cccc(NC(=O)N(Cc2nnc3n2CCCCC3)c2cccc(OC)c2)c1`, 718 s. As for `COc1ccc2nc3oc(C(=O)N4CCN(Cc5ccc6c(c5)OCO6)CC4)cc3cc2c1`, the figure is 670 s. As for `O=C(CCn1nnc2ccccc2c1=O)NCCn1ncccc1=O`, the figure is 584 s; as for `Cn1c(=O)c(N2CCN(C(=O)c3cc(F)ccc3F)CC2)nc2cccnc21`, 834 s. `Cc1cnc(C2CN(Cc3cccc(F)c3)C2)n1CC1CC1`: the RP-LC retention time stood at 554 s. As for `CCOC(=O)N1CCN(C(=O)Nc2cccc(Cl)c2)CC1`, the RP-LC retention time was found to be 732 s. Take `CCCNC(=O)N1CCN(Cc2nc3cc(-c4ccccc4)ccc3o2)CC1`: the RP-LC retention time came out at 722 s.

As for `Cc1cccc(NC(=O)NC2CCN(c3cc(C)cc(C)c3)C2=O)c1` (centres undefined), the RP-LC retention time amounted to 945 s.

`CCOC(=O)c1c(C)n(Cc2ccco2)c2ccc(OC)cc12`: the RP-LC retention time came out at 1050 s. Then `O=C(CSc1nnc(NC(=O)C2CC2)s1)NCc1ccc(F)cc1`, with 674 s; and `CC(C)CC(=O)N1CCCC(C(=O)N2CCOCC2)C1` (centres undefined), with 628 s. Then `CN(C)CCNC(=O)C1CCN(c2nccnc2Sc2ccccc2)CC1`, with 629 s; and `Cc1ccc(Sc2nccnc2N2CCCC(C(=O)N3CCN(c4ccccc4)CC3)C2)cc1` (centres undefined), with 1220 s. As for `O=C(O)C1CCN(c2nc3ccc(-c4cccs4)nc3s2)CC1`, the figure is 837 s. As to `Cc1sc(-c2noc(C3CCC3)n2)cc1S(=O)(=O)N1CCC(C(=O)NCc2ccco2)CC1`, the RP-LC retention time was 1010 s. As for `CCc1cccc(C)c1Nc1c(-c2ccc(Cl)cc2)nc2ncccn12`, the figure is 978 s. The molecule `COc1ccc(-c2noc(CN3N=NC4C(=O)N(c5ccc(F)c(F)c5)C(=O)C43)n2)cc1` (centres undefined) yielded an RP-LC retention time of 1130 s.

For `Cc1ncoc1C(=O)N1CCOc2ccc(N(C)C)cc2C1`, the RP-LC retention time amounted to 572 s. Molecule `CCc1cccc(NC(=O)N2CCc3c(c(COc4ccccc4)nn3C)C2)c1` showed an RP-LC retention time of 934 s.

`CCOc1ccccc1N1CCN(S(=O)(=O)c2nn(C)cc2C(=O)NCCC(C)C)CC1` came in with an RP-LC retention time of 1080 s. For `Cn1nc(CNC(=O)C2CC(=O)N(C3CCCCC3)C2)c2c1CCN(S(C)(=O)=O)C2` (centres undefined), the RP-LC retention time was found to be 645 s. As for `COc1ccc(-n2ccn3cc(-c4cc(OC)ccc4OC)nc3c2=O)cc1`, the figure is 828 s. Then `OC[C@H]1O[C@@H](n2cnc3c(NC4CCCCC4)ncnc32)[C@H](O)[C@@H]1O`, with 656 s. As to `O=C(CN1C(=O)NC2(CCCCC2)C1=O)NCc1ccccc1F`, the RP-LC retention time worked out at 733 s. Then `Clc1ccc(-c2noc(CN3CCOCC3)n2)cc1`, with 775 s. The molecule `CCc1cc(-c2csc(S(=O)(=O)N3CCN(c4ccc(Cl)cc4)CC3)c2)on1` came in with an RP-LC retention time of 1200 s. As for `CCc1nnc(-c2ccc3ccn(CC(=O)N4CCN(c5ccc(OC)cc5)CC4)c3c2)o1`, the figure is 784 s; as for `O=C(Cn1cnc2nc(N3CCC(C(=O)NC4CC4)CC3)sc2c1=O)NC1CCc2ccccc21` (centres undefined), 670 s; as for `O=C(NC1CCCC1)C1CCN(Cc2noc(-c3ccc(F)cc3)n2)CC1`, 647 s. As for `O=C1CSCc2nc3ccccc3n21`, the figure is 634 s; as for `O=C(NCc1ccccc1)C1CCN(S(=O)(=O)c2ccc3[nH]c(=O)ccc3c2)CC1`, 683 s.

For `Cc1ccsc1C(=O)N1CCC2(CC1)N=C(c1ccc(Cl)cc1)NO2`, the RP-LC retention time turned out to be 896 s. As for `CCCCOC(=O)c1ccc(NC(=O)c2c(O)c3cccc4c3n(c2=O)CC4)cc1`, the figure is 1070 s; as for `O=C(Cc1noc2ccccc12)N1CCN(c2cc(-c3ccccc3)ncn2)CC1`, 745 s.

With `CCN1C(=O)c2cccnc2Sc2cc(CNC(=O)c3cccs3)ccc21`, the RP-LC retention time amounted to 737 s.

`CC(C)c1ccc(NC(=O)Cc2nnc(-c3ccc4ncccc4c3)o2)cc1` yielded an RP-LC retention time of 854 s. In turn, `Cc1cnc(C(=O)N[C@@H]2CCC[C@@H]2C(=O)NC2CCCCCC2)cn1` displayed an RP-LC retention time of 735 s.

`CCCN1C(=O)COc2ccc(-c3noc(C(C)NC(=O)c4ccccc4)n3)cc21` (centres undefined) returned an RP-LC retention time of 900 s. On to `COc1ccccc1C(=O)Nc1ccc2c(c1)Sc1ncccc1C(=O)N2C`, for which the RP-LC retention time is 810 s. As for `O=S(=O)(c1cccc(C(F)(F)F)c1)N1CCC2(CCN(c3cccnc3)C2)C1` (centres undefined), the figure is 702 s; as for `O=C(Nc1ccccc1)C(=O)c1cn(CC(=O)N2CCOCC2)c2ccccc12`, 860 s. As to `CCOC(=O)c1c(S(=O)(=O)N2CCC(C(=O)Nc3ccc(C)cc3)CC2)c(C)n(C)c1C`, the RP-LC retention time is 886 s. The molecule `Cn1nc(CNC(=O)CNC(=O)Cc2ccc(Cl)cc2)c2ccccc21` came in with an RP-LC retention time of 742 s. For the molecule `COCCc1nncn1C1CCN(S(=O)(=O)c2cccc(F)c2)CC1`, the RP-LC retention time amounted to 696 s. Then `Cc1ccc(CN2CCC[C@H]2c2nc(C3CCOCC3)n[nH]2)c(C)c1`, with 590 s; and `CCOc1ccccc1-c1csc(NC(=O)Cc2csc(-c3ccccc3)n2)n1`, with 1240 s; and `CC1(C)c2ccccc2-c2nc3ccccc3cc2C1O` (centres undefined), with 890 s. Molecule `COc1ccc(OCc2noc(CNC(=O)CSc3nc4ccccc4s3)n2)cc1` gave an RP-LC retention time of 855 s. For `O=C(Cn1c(=O)oc2ccccc21)N1CCc2nn(CC3CC3)c(=O)n2CC1`, the RP-LC retention time stood at 682 s. Then `CCOC(=O)N1CCN(C(=O)Cc2c(C)nn(-c3nc(-c4ccc(Cl)cc4)cs3)c2C)CC1`, with 1110 s.

In the case of `Cc1cc(NC(=O)C2CCN(C(=O)c3cccc(-n4cnnn4)c3)CC2)no1`, the RP-LC retention time was determined as 621 s. In turn, `COc1ccc2c(c1)CC(C(=O)N1CCN(C(=O)c3ccco3)CC1)CO2` (centres undefined) came in with an RP-LC retention time of 725 s. In turn, `O=C(NC1CCCC1)c1ccc2ccnc(N3CCN(c4ccc(F)cc4)CC3)c2c1` showed an RP-LC retention time of 803 s. Then `CCn1cc(-c2ccncc2)cc1C(=O)NCc1cc(C)ccc1C`, with 705 s; and `Cc1ccccc1N1CCN(c2ncnc3scc(-c4cccs4)c23)CC1`, with 992 s. Take `COc1ccc(Br)cc1Cn1nnc(C(=O)NCc2cccs2)c1N`: the RP-LC retention time was found to be 825 s.

`COCCNC(=O)c1csc(N2CCN(c3ccccc3)CC2)n1` registered an RP-LC retention time of 863 s. In turn, `CCOc1ccc(C2Cn3nnc(-c4nc(-c5ccccc5C)no4)c3CO2)cc1` (centres undefined) had an RP-LC retention time of 1270 s. The molecule `CN1C(=O)c2cccn2CC1C(=O)NC1CCCC1` (centres undefined) showed an RP-LC retention time of 634 s. As for `CC1CCCN(c2nc(-c3ccc(Cl)cc3)nc3ccccc23)C1` (centres undefined), the figure is 941 s; as for `Cc1ccc(NC(=O)Cn2nc3cc(C)nc(-c4ccccc4)n3c2=O)c(C)c1`, 832 s; as for `Cc1cccc(C(=O)Nc2nc(-c3ccc4c(c3)N(C)C(=O)C(C)O4)cs2)c1` (centres undefined), 1050 s. `O=C(CCCS(=O)(=O)c1ccc(F)cc1)Nc1nnc(-c2ccno2)o1` returned an RP-LC retention time of 637 s.

Regarding `COCCN1C(=O)[C@H]2CN(Cc3cccc(Br)c3)C[C@H]2C1=O`, the RP-LC retention time amounted to 656 s. For the molecule `CCOc1ccccc1NC(=O)C1CCN(c2cncnc2N2CCCCC2)CC1`, the RP-LC retention time was determined as 742 s. In turn, `COc1ccc(Nc2c(-c3ccc(OC)c(OC)c3)nc3cnccn23)cc1` registered an RP-LC retention time of 730 s. As for `COc1ccc(C)cc1NC(=O)Cn1nc(N2CCCC2)c2ccccc2c1=O`, the figure is 840 s; as for `CN1c2ccccc2C(=O)NC12CCN(C(=O)c1cccc(Cl)c1)CC2`, 756 s; as for `CCOc1cc(-c2nc(C3CC(=O)N(c4ccc(OC)c(OC)c4)C3)no2)cc(OCC)c1OCC` (centres undefined), 1060 s. As for `Cc1ccc(Sc2nccnc2N2CCCC(C(=O)Nc3ccc(C)c(F)c3)C2)cc1` (centres undefined), the figure is 1260 s.
